Assay results published in patent US20250361268A1, “NOVEL ANTI-INFLAMMATORY PEPTIDE AND USE THEREOF” (NOVACELL TECHNOLOGY INC., priority 2022, published 2025).
pEC50: −log10 of the molar value. Peptide text beside a SMILES is read from it.

Assays:
FPR2 = molecular target: T1, FPR2 (Homo sapiens, UniProt P25090); assay: Change in calcium activity by peptide (Fura-2) in RBL cells overexpressing FPR2; assay type: cell-based; settings: calcium activity (Fura-2), graded per Table 3, read-out: EC50 for [Ca^2+] FPR2
T1 construct: expressed in transfected cells; host or cells: RBL cells (RBL-FPR2)
T1 sequence (P25090 1-351): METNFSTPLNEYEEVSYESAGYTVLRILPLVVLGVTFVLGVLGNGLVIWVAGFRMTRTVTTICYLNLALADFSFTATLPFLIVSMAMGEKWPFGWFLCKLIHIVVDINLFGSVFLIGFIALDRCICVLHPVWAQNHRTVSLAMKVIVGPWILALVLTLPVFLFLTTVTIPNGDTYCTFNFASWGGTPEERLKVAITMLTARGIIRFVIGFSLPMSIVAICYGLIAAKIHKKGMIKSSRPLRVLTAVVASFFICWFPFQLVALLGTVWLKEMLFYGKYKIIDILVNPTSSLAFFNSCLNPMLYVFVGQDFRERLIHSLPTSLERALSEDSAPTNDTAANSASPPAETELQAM
Procedure, shortened: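 Peptide-induced intracellular calcium change measured by Fura-2 fluorescence on a plate reader. Cells: RBL line overexpressing FPR2, dye-loaded 1 h at 37 °C then 30 min at RT in dark; peptides from 0.5 mM water/50% DMSO stocks, diluted in HBSS with 20 mM HEPES.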

FPR1 = molecular target: T2, FPR1 (Homo sapiens, UniProt P21462); assay: Change in calcium activity by peptide, FPR1 activation effect; assay type: cell-based; settings: calcium activity (Fura-2), graded per Table 3, read-out: EC50 for [Ca^2+] FPR1
T2 sequence (P21462 1-350): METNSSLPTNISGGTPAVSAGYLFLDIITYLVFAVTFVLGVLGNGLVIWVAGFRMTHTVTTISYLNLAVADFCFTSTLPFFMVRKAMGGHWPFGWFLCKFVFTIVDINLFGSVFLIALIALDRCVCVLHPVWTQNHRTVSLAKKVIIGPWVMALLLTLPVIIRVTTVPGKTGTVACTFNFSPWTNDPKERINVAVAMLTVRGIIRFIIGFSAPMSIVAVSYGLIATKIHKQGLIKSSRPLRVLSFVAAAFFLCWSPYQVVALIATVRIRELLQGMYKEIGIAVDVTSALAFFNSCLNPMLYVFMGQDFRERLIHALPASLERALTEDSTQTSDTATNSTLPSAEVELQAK
Procedure, shortened: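 Calcium flux induced by peptide addition was monitored on a FlexStation 3 plate reader. Before this, cells seeded a day earlier (3×10^5/well) took up the Fura-2 dye for 1 h at 37 °C plus 30 min dark at room temperature.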

| pEC50 (FPR2) | pEC50 (FPR1) | Structure (SMILES) |
| --- | --- | --- |
| 7.00 to 7.96 | < 5.00 | CC[C@H](C)[C@H](N)C(=O)N[C@@H](CCCCN)C(=O)N[C@@H](Cc1ccccc1)C(=O)N[C@@H](Cc1c[nH]c2ccccc12)C(=O)N[C@@H](CCSC)C(=O)N[C@H](CCSC)C(N)=O [Peptide 129] (HELM PEPTIDE1{I.K.F.W.M.[dM].[am]}$$$$V2.0) |
| 7.00 to 7.96 | < 5.00 | CC[C@H](C)[C@H](N)C(=O)N[C@@H](CCCCN)C(=O)N[C@@H](CCCCN)C(=O)N[C@@H](Cc1c[nH]c2ccccc12)C(=O)N[C@@H](CCSC)C(=O)N[C@H](CCSC)C(N)=O [Peptide 130] (HELM PEPTIDE1{I.K.K.W.M.[dM].[am]}$$$$V2.0) |
| 7.00 to 7.96 | < 5.00 | CC[C@H](C)[C@H](N)C(=O)N[C@@H](CCCCN)C(=O)N[C@@H](Cc1ccccc1)C(=O)N[C@@H](CCCCN)C(=O)N[C@@H](Cc1ccc(O)cc1)C(=O)N[C@H](CCSC)C(N)=O [Peptide 131] (HELM PEPTIDE1{I.K.F.K.Y.[dM].[am]}$$$$V2.0) |
| 7.00 to 7.96 | < 5.00 | CC[C@H](C)[C@H](N)C(=O)N[C@@H](CCCCN)C(=O)N[C@@H](Cc1ccccc1)C(=O)N[C@@H](CCCCN)C(=O)N[C@H](C(=O)N[C@H](CCSC)C(N)=O)C(C)C [Peptide 132] (HELM PEPTIDE1{I.K.F.K.V.[dM].[am]}$$$$V2.0) |

Continued, molecule first:

| Structure (SMILES) | pEC50 (FPR2) | pEC50 (FPR1) |
| --- | --- | --- |
| CSCC[C@@H](NC(=O)[C@@H]1CCCN1C(=O)[C@H](Cc1ccc(O)cc1)NC(=O)[C@H](Cc1ccc(O)cc1)NC(=O)[C@H](CCCNC(=N)N)NC(=O)[C@H](Cc1c[nH]c2ccccc12)NC(C)=O)C(N)=O [Peptide 122] (HELM PEPTIDE1{[ac].W.R.Y.Y.P.[dM].[am]}$$$$V2.0) | > 8.00 | 6.00 to 7.00 |
| CSCC[C@@H](NC(=O)[C@H](Cc1ccc(O)cc1)NC(=O)[C@H](Cc1ccc(O)cc1)NC(=O)[C@H](Cc1ccc(O)cc1)NC(=O)[C@H](CCCNC(=N)N)NC(=O)[C@H](Cc1c[nH]c2ccccc12)NC(=O)[C@@H](N)CCCNC(=N)N)C(N)=O [Peptide 123] (HELM PEPTIDE1{R.W.R.Y.Y.Y.[dM].[am]}$$$$V2.0) | > 8.00 | < 5.00 |
| CSCC[C@@H](NC(=O)[C@H](Cc1ccc(O)cc1)NC(=O)[C@H](Cc1ccc(O)cc1)NC(=O)[C@H](Cc1ccc(O)cc1)NC(=O)[C@H](CCCNC(=N)N)NC(=O)[C@H](Cc1c[nH]c2ccccc12)NC(C)=O)C(N)=O [Peptide 124] (HELM PEPTIDE1{[ac].W.R.Y.Y.Y.[dM].[am]}$$$$V2.0) | 7.00 to 7.96 | 5.00 to 6.00 |
| CSCC[C@H](NC(=O)[C@H](CCCNC(=N)N)NC(C)=O)C(=O)N[C@@H](CCCNC(=N)N)C(=O)N[C@@H](Cc1ccc(O)cc1)C(=O)N[C@@H](Cc1ccc(O)cc1)C(=O)N[C@@H](Cc1ccc(O)cc1)C(=O)N[C@H](CCSC)C(N)=O [Peptide 125] (HELM PEPTIDE1{[ac].R.M.R.Y.Y.Y.[dM].[am]}$$$$V2.0) | > 8.00 | < 5.00 |
| CSCC[C@H](NC(C)=O)C(=O)N[C@@H](CCCNC(=N)N)C(=O)N[C@@H](Cc1ccc(O)cc1)C(=O)N[C@@H](Cc1ccc(O)cc1)C(=O)N[C@@H](Cc1ccc(O)cc1)C(=O)N[C@H](CCSC)C(N)=O [Peptide 126] (HELM PEPTIDE1{[ac].M.R.Y.Y.Y.[dM].[am]}$$$$V2.0) | 7.00 to 7.96 | < 5.00 |
| CCCC(=O)N[C@@H](Cc1c[nH]cn1)C(=O)N[C@@H](CCSC)C(=O)N[C@@H](CCCCN)C(=O)N[C@@H](Cc1ccc(O)cc1)C(=O)N[C@@H](Cc1ccc(O)cc1)C(=O)N[C@@H](Cc1ccc(O)cc1)C(=O)N[C@H](CCSC)C(N)=O [Peptide 127] (HELM PEPTIDE1{[CCCC(=O)[*:2]].H.M.K.Y.Y.Y.[dM].[am]}$$$$V2.0) | > 8.00 | < 5.00 |
| CC[C@H](C)[C@H](N)C(=O)N[C@@H](CCCCN)C(=O)N[C@@H](Cc1ccccc1)C(=O)N[C@@H](Cc1c[nH]c2ccccc12)C(=O)N[C@@H](Cc1ccc(O)cc1)C(=O)N[C@H](CCSC)C(N)=O [Peptide 128] (HELM PEPTIDE1{I.K.F.W.Y.[dM].[am]}$$$$V2.0) | 7.00 to 7.96 | < 5.00 |
